ChEMBL document CHEMBL1212897 (J Med Chem, 2010)
Activity calls are given as the source filed them. The calls are words filed in the database; no cut-off is given here.

How the values were obtained:
[1] = biological target: T1, Mineralocorticoid receptor (Homo sapiens, UniProt P08235); type: functional, cell-based, Huh-7;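 further: antagonism at Gal4-fused mineralocorticoid receptor in human Huh7 cells, measured by luciferase reporter gene read-out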
T1 sequence (P08235 whole entry): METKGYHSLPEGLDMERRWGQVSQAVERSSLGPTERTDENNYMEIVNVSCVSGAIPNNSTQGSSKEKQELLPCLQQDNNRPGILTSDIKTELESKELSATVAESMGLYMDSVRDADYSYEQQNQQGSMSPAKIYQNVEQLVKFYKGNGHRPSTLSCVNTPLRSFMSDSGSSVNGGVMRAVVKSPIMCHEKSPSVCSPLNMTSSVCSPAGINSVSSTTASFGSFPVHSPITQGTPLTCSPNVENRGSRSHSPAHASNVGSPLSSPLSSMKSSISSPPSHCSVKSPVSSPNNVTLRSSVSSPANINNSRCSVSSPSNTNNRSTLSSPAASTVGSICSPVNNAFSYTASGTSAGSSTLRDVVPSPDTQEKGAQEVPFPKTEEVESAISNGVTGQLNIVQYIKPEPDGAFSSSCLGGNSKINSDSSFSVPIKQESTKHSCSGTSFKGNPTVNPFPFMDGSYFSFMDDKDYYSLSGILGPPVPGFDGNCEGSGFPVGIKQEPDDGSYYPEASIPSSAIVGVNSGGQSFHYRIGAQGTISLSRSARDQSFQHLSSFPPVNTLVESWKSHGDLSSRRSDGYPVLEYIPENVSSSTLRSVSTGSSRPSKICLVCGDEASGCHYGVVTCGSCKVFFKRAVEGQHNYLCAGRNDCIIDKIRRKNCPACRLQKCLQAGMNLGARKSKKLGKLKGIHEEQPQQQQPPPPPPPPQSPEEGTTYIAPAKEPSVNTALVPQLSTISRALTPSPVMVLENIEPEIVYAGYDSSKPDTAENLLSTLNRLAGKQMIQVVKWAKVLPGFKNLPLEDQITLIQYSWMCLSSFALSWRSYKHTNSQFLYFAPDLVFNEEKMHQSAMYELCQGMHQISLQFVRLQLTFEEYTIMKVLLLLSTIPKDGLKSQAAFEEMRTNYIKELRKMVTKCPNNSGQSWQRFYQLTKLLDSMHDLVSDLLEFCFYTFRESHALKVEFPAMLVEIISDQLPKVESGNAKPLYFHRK

Progesterone receptor = biological target: T2, Progesterone receptor (Homo sapiens, UniProt P06401); assay: Antagonist activity at progesterone receptor; type: functional
T2 sequence (P06401 whole entry): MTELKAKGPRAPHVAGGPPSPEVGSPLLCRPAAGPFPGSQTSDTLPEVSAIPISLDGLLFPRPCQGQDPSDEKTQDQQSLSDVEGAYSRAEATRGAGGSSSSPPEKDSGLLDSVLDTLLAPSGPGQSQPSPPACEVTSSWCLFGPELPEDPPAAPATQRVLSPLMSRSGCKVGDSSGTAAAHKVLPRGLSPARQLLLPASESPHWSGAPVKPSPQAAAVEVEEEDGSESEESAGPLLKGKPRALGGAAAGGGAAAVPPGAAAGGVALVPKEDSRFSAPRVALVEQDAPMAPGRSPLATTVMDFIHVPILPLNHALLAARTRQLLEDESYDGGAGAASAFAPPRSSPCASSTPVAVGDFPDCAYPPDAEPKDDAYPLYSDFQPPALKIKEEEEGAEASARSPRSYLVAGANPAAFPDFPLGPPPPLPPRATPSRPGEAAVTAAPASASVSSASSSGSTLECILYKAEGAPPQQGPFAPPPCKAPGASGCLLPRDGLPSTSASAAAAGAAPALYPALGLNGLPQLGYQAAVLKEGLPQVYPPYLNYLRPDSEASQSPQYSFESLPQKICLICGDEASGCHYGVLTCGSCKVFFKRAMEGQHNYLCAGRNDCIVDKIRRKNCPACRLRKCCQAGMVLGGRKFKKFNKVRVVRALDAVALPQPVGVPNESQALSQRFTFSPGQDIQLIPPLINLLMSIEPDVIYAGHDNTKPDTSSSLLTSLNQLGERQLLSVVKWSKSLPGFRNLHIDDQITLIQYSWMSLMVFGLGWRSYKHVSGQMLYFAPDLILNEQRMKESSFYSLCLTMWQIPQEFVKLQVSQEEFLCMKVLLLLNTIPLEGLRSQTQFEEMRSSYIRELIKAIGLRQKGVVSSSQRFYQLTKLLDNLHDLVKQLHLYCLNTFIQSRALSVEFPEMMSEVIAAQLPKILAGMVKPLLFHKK

[2] = Clearance in Sprague-Dawley rat at 2 mg/kg, iv; type: ADME, organism-based; parameters: dose 2 mg/kg, route intravenous; details: in vivo
[3] = Volume of distribution at steady state in Sprague-Dawley rat at 2 mg/kg, iv; type: ADME, organism-based; parameters: dose 2 mg/kg, route intravenous; details: in vivo, read-out: Vdss
[4] = Half life in Sprague-Dawley rat at 2 mg/kg, iv; type: ADME, organism-based; parameters: dose 2 mg/kg, route intravenous; details: in vivo
[5] = Oral bioavailability in Sprague-Dawley rat at 2 mg/kg; type: ADME, organism-based; details: in vivo
Androgen receptor = biological target: T3, Androgen receptor (Homo sapiens, UniProt P10275)
T3 sequence (P10275 whole entry): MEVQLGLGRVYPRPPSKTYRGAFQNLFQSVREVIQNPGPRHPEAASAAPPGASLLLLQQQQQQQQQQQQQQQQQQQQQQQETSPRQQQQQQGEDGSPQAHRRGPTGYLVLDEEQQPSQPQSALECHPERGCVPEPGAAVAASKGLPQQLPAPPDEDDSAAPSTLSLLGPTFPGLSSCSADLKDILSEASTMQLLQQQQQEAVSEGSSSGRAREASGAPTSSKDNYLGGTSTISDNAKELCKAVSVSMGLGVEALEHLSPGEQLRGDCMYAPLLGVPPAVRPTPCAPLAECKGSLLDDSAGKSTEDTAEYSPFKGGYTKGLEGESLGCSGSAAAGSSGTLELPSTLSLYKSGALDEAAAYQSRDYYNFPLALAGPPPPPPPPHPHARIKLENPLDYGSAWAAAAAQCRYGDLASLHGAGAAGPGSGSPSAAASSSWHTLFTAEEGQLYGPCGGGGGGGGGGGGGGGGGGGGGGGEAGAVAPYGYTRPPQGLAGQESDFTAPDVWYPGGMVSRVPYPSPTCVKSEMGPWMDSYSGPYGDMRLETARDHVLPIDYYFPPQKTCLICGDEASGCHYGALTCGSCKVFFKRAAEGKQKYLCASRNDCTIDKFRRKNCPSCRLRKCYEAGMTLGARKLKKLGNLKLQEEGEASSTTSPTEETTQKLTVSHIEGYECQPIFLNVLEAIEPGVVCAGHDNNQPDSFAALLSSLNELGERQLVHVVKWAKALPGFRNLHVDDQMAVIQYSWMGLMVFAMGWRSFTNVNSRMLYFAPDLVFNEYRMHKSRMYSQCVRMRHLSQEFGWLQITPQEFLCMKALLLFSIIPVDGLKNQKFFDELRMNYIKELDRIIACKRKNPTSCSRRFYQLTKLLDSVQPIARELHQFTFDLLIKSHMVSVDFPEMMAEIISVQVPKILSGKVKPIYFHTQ

Glucocorticoid receptor = biological target: T4, Glucocorticoid receptor (Homo sapiens, UniProt P04150)
T4 sequence (P04150 whole entry): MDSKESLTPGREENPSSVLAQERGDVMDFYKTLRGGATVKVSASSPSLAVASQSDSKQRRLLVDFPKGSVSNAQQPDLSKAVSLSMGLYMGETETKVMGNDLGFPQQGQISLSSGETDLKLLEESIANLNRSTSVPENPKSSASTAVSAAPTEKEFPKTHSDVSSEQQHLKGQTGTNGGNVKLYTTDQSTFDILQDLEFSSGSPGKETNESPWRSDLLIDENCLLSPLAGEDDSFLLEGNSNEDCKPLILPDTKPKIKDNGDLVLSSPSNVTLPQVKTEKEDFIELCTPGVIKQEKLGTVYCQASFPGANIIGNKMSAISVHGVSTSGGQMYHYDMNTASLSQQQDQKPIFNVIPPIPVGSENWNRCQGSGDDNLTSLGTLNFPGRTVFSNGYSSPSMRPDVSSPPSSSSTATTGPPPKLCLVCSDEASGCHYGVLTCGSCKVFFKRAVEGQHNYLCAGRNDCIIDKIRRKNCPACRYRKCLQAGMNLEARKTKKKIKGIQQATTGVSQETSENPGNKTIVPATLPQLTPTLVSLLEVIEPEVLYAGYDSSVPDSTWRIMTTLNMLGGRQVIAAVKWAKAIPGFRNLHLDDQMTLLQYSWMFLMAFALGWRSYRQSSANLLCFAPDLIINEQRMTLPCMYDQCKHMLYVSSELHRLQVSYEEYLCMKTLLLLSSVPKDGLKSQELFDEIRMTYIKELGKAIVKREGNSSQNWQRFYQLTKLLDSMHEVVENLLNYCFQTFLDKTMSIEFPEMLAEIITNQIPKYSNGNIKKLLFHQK

Rattus norvegicus [6] = assay: Antihypertensive activity in Dahl salt sensitive hypertensive rat assessed as reduction in systolic blood pressure at 40 to 100 mg/kg, po bid for 21 days (RVb = 10 to 50 mmHg); type: functional, Artery; details: dose mg/kg 40-100
Rattus norvegicus [7] = assay: Protection against high salt-induced kidney injury in Dahl salt sensitive hypertensive rat assessed as decrease in urinary albumin level at 10 mg/kg, po relative to eplerenone; type: functional; parameters: scale not given: the % may be the effect or the level left
Rattus norvegicus [8] = assay: Protection against high salt-induced kidney injury in Dahl salt sensitive hypertensive rat assessed as decrease in urinary albumin level at 40 to 100 mg/kg, po relative to eplerenone; type: functional; parameters: scale not given: the % may be the effect or the level left; details: dose mg/kg 40-100
Rattus norvegicus [9] = assay: Protection against high salt-induced kidney injury in Dahl salt sensitive hypertensive rat assessed as decrease in glomerulosclerosis at 10 mg/kg, po relative to eplerenone; type: functional, organism-based; parameters: dose 10 mg/kg
Rattus norvegicus [10] = assay: Effect on renal function in rat assessed as reduction in serum potassium level at 10 mg/kg, po; type: functional, organism-based; parameters: dose 10 mg/kg
Estrogen receptor = biological target: T5, Estrogen receptor (Homo sapiens, UniProt P03372); assay: Antagonist activity at estrogen receptor; type: functional
T5 sequence (P03372 whole entry): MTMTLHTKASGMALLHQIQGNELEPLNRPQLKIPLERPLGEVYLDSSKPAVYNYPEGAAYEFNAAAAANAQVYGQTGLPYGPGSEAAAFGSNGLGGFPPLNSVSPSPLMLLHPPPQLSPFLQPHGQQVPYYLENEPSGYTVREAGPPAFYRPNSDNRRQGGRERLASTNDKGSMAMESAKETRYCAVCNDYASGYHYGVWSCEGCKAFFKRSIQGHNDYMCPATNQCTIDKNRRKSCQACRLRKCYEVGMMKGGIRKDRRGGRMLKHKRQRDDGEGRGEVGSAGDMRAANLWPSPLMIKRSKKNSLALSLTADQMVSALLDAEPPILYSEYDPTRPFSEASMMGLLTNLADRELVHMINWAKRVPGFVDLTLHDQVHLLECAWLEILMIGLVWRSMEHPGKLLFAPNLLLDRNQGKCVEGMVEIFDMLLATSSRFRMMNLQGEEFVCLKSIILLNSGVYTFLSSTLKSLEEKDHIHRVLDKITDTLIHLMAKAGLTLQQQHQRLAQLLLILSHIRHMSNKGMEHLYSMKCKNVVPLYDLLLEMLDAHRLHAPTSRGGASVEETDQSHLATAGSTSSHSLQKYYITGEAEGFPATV

[11] = Clearance in Sprague-Dawley rat at 1 mg/kg, iv; type: ADME, organism-based; parameters: dose 1 mg/kg, route intravenous; details: in vivo
[12] = Volume of distribution at steady state in Sprague-Dawley rat at 1 mg/kg, iv; type: ADME, organism-based; parameters: dose 1 mg/kg, route intravenous; details: in vivo, read-out: Vdss
[13] = Half life in Sprague-Dawley rat at 1 mg/kg, iv; type: ADME, organism-based; parameters: dose 1 mg/kg, route intravenous; details: in vivo
[14] = Oral bioavailability in Sprague-Dawley rat at 1 mg/kg; type: ADME, organism-based; details: in vivo

SMILES | IC50 [1] [µM] | IC50 (Progesterone receptor) [µM] | clearance [2] [mL/min/kg] | Vd [3] [L/kg] | half-life [4] [h] | bioavailability [5] [%] | IC50 (Androgen receptor) [µM] | IC50 (Glucocorticoid receptor) [µM] | Activity (Rattus norvegicus [6]) [mmHg] | Activity (Rattus norvegicus [7]) [%] | Activity (Rattus norvegicus [8]) [%] | Activity (Rattus norvegicus [9]) | Activity (Rattus norvegicus [10]) | IC50 (Estrogen receptor) [µM] | clearance [11] [mL/min/kg] | Vd [12] [L/kg] | half-life [13] [h] | bioavailability [14] [%]
N#Cc1ccc(N2N=C(c3ccc(C(=O)O)cc3)C[C@@H]2C2CCCC2)cc1Cl | 0.016 | > 4.31 | 34 | 3.6 | 1.2 | 100 | > 10 | > 10 |  |  |  |  |  |  |  |  |  | 
Cc1cc(N2N=C3c4ccc(C(=O)O)cc4CO[C@@H]3[C@@H]2C2CCCC2)ccc1C#N | 0.026 | 1.88 | 4.6 | 0.6 | 1.6 | 57 | > 10 | > 10 |  |  |  |  |  |  |  |  |  | 
N#Cc1ccc(N2N=C(c3ccc(C(=O)O)cc3)C[C@@H]2c2ccc(F)cc2)cc1Cl | 0.031 | 2.08 | 6.9 | 1.5 | 2.6 | 46 | > 8.92 | > 10 |  |  |  |  |  |  |  |  |  | 
N#Cc1ccc(N2N=C3c4ccc(C(=O)O)cc4CC[C@@H]3[C@@H]2C2CCCC2)cc1Cl [PF-03882845] |  |  | 9.8 | 1.4 | 1.7 | 86 |  |  | <5 | 18 | 50 | Active | Active |  |  |  |  | 
CCOc1cc(C2=NN(c3ccc(C#N)c(Cl)c3)[C@@H](C3CCCC3)C2)ccc1C(=O)O |  |  | 5.5 | 0.6 | 1.3 | 83 |  |  |  |  |  |  |  | > 4.96 | 9.2 | 2.3 | 2.5 | 50
N#Cc1ccc(N2N=C3c4ccc(C(=O)O)cc4CC[C@@H]3[C@@H]2C2CCCC2)cc1 (racemic) | 0.089 | 3.18 |  |  |  |  | > 10 | > 10 |  |  |  |  |  |  |  |  |  | 
